Assay results published in patent US20060004028A1, “Novel PARP inhibitor” (MOCHIDA PHARMACEUTICAL CO., LTD., priority 2002, published 2006).

| melting point | Compound |
| --- | --- |
| 220 °C (dec.) | COc1ccc(C2NC(=O)c3cccc4c3N2CCC4=NO)cc1Cl (stereo not drawn) [Example 70, 3-(3-chloro-4-methoxyphenyl)-7-hydroxyimino-3-6,7-dihydro-3H,5H-pyrido[3,2,1-ij]quinazoline-1(2H)-one] |
| 186 to 187.2 °C | COc1ccc(C2NC(=O)c3cccc4c3N2CCC4NC(=O)CCN2CCCCC2)cc1 (stereo not drawn) [Example 133, 7-[3-(piperidine-1-yl)propanoyl]amino-3-(4-methoxyphenyl)-6,7-dihydro-3H,5H-pyrido[3,2,1-ij]quinazoline-1(2H)-one] |
| 126.5 to 142.5 °C | COc1cccc(C2NC(=O)c3cccc4c3N2CCC4=O)c1 (stereo not drawn) [Example 44, 3-(3-methoxyphenyl)-6,7-dihydro-3H,5H-pyrido[3,2,1-ij]quinazoline-1,7(2H)-dione] |
| 172.1 to 180.4 °C | O=C1CCN2c3c1cccc3C(=O)NC2c1ccccc1 (stereo not drawn) [Example 15, 3-(phenyl)-6,7-dihydro-3H,5H-pyrido[3,2,1-ij]quinazoline-1,7(2H)-dione] |
| 230 to 236.9 °C | O=C1NC(c2ccc(Br)cc2)N2CCC(=NO)c3cccc1c32 (stereo not drawn) [Example 79, 3-(4-bromophenyl)-7-hydroxyimino-6,7-dihydro-3H,5H-pyrido[3,2,1-ij]quinazoline-1(2H)-one] |
| 232.7 to 234.3 °C | COc1ccc(C2NC(=O)c3cc(OC(F)(F)F)cc4c3N2CCC4=NO)cc1 (stereo not drawn) [Example 50, 7-hydroxyimino-3-(4-methoxyphenyl)-9-trifluoromethoxy-6,7-dihydro-3H,5H-pyrido[3,2,1-ij]quinazoline-1(2H)-one] |
| 167.4 to 168.9 °C | CON=C1CCN2c3c(cccc31)C(=O)NC2c1ccc(OC(C)C)cc1 (stereo not drawn) [Example 64, 3-(4-isopropoxyphenyl)-7-methoxyimino-6,7-dihydro-3H,5H-pyrido[3,2,1-ij]quinazoline-1(2H)-one] |
| 134 to 146.9 °C | N#Cc1ccc(C2NC(=O)c3cccc4c3N2CCC4=O)cc1 (stereo not drawn) [Example 16, 3-(4-cyanophenyl)-6,7-dihydro-3H,5H-pyrido[3,2,1-ij]quinazoline-1,7(2H)-dione] |
| 133.9 to 146.8 °C | COc1cc(C2NC(=O)c3cccc4c3N2CCC4=NO)cc(Br)c1OC (stereo not drawn) [Example 56, 3-(3-bromo-4,5-dimethoxyphenyl)-7-hydroxyimino-6,7-dihydro-3H,5H-pyrido[3,2,1-ij]quinazoline-1(2H)-one] |
| 161.4 to 166.6 °C | COc1ccc(C2NC(=O)c3cccc4c3N2CCC4NC(=O)CN(C)C)cc1 (stereo not drawn) [Example 136, 7-(N,N-dimethylaminoacetyl)amino-3-(4-methoxyphenyl)-6,7-dihydro-3H,5H-pyrido[3,2,1-ij]quinazoline-1(2H)-one] |
| 214.7 to 219.5 °C | COc1ccccc1C1NC(=O)c2cccc3c2N1CCC3=O (stereo not drawn) [Example 43, 3-(2-methoxyphenyl)-6,7-dihydro-3H,5H-pyrido[3,2,1-ij]quinazoline-1,7(2H)-dione] |
| > 250 °C | N#Cc1ccc(C2NC(=O)c3cccc4c3N2CCC4=NO)cc1 (stereo not drawn) [Example 74, 3-(4-cyanophenyl)-7-hydroxyimino-6,7-dihydro-3H,5H-pyrido[3,2,1-ij]quinazoline-1(2H)-one] |
| 201.4 to 202.9 °C | COc1ccc(C2NC(=O)c3cccc4c3N2CCC4NC(=O)c2ccc(N(C)C)cc2)cc1 (stereo not drawn) [Example 132, 7-(4-N,N-dimethylamino)benzoylamino-3-(4-methoxyphenyl)-6,7-dihydro-3H,5H-pyrido[3,2,1-ij]quinazoline-1(2H)-one] |
| 188.2 to 192.4 °C | COc1ccc(C2NC(=O)c3cccc4c3N2CCC4N(C)C)cc1 (stereo not drawn) [Example 135, 7-dimethylamino-3-(4-methoxyphenyl)-6,7-dihydro-3H,5H-pyrido[3,2,1-ij]quinazoline-1(2H)-one] |
| 81.4 to 82 °C | COc1ccc(Cc2nc(=O)c3cccc4c3n2CCC4=O)cc1 [Example 41, 3-(4-methoxyphenyl)methyl-6,7-dihydro-5H-pyrido[3,2,1-ij]quinazoline-1,7-dione] |
